Bounds are passed on as bounds.

In one assay the target is T1, SIK1 (Homo sapiens, UniProt P57059).
T1 construct: purchased Carna Biosciences 02-131
Nature of the assay: ADP-Glo kinase assay, SIK1. Type of assay: biochemical. Conditions: AMARA peptide 45 μM, 5 μM ATP, 120 min, read-out: SIM1 IC50. An excerpt:
(§1) The ADP-Glo™ kinase assay is a luminescent technology assay which measures the ADP formed from a kinase reaction. In this specific study, the kinase reactions consisted of the phosphorylation of the AMARA peptide substrate (SignalChem, Cat #A11-58) by SIK1 (Carma Biosciences, Cat #02-131), SIK2 (ThermoFisher Scientific, Cat #PV4792) or SIK3 (SignalChem, Cat #S12-11G-100). In a second step the kinase reactions are terminated and all the remaining ATP is depleted. In a final step the ADP is converted into ATP and this newly synthesized ATP is measured by using a luciferase/luciferin reaction. The generated light is measured using an Envision plate reader, wherein the luminescent signal obtained positively correlates with the kinase activity.
(§2) The test compounds are prepared as a serial dilution of 10 point dose responses with ⅕ dilution steps in 100% DMSO starting from 2 mM highest concentration, diluted 1/20 in water and […] is transferred to the assay plates (PerkinElmer Inc., Cat #6007290).
(§3) 1% DMSO and 10 μM staurosporine final concentrations are used as negative and positive controls.
(§4) 2 μL enzyme-substrate mixture is added to the assay plates.
(§5) The reaction is started by adding 2 μL diluted ATP on the assay plates. Plates are centrifuged for a few seconds at 1000 rpm and gently shaken for 2 min followed by an incubation at RT for 120 min.
(§6) The reactions are stopped and the unconsumed ATP is depleted by adding 5 μL ADP-Glo Reagent (Promega, Cat #V9121B) to the reaction. The plates are centrifuged for a few seconds at 1000 rpm and incubated at RT for […] (ATP depletion).
(§7) The ADP is converted to ATP and luciferase and luciferin is introduced to detect ATP by adding 10 μL Kinase Detection Reagent (Promega, Cat #V913B+V914r) to the reaction. The plates are centrifuged for a few seconds at 1000 rpm and incubated at RT for 30 min (ADP detection).
(§8) Luminescence is measured on an Envision plate reader (PerkinElmer Inc.).
(§9) Raw data are generated following the read-out performed on the TopCount, plotted to generate dose response curves to calculate percentage inhibition (PIN) and average IC50 for each SIK homologue which are reported in the table below.

Assay [1] has as its system LPS-induced TNFα in monocytes. The assay can be described thus: Monocytes assay: LPS-triggered TNFα (ELISA). Type of assay: cell-based. Conditions: Homo sapiens, Monocyte, LPS 200 ng/mL, supernatant after 4 h. The procedure: SIK inhibition inhibits TNFα and increases IL-10 release in LPS triggered monocyte-derived macrophages (MdM) and dendritic cells (MdDCs) (Clark et al. 2012; Sundberg et al. 2014; Ozanne et al. 2015). This assay evaluates illustrative compounds of the invention for their inhibition of LPS-induced TNFα and LPS triggered IL-10 secretion in monocytes.
PBMCs are isolated from human blood samples (buffycoats). The buffy coat is aseptically transferred into a 50 mL Falcon tube, and diluted ½ in PBS. Falcon tubes are filled with 20 mL Lymphoprep™, on top of which 25 mL of the buffy coat is carefully added, tubes are centrifuged for 35 min at 400 g in temperature controlled centrifuge, without brake, at 25° C. PBMCs are aspirated from the white interface layer between sample and Lymphoprep™. PBMCs are washed five times in PBS. Cells are resuspended in RPMI 1640 complete medium supplemented with 10% FBS, 1% P/S, and cell density is determined using a hematologic analyzer (Sysmex XS-500i).
PBMCs are centrifuged at 300×g for 10 min and resuspended at a density of 1.0*10^7 cells/80 μL Miltenyi buffer (PBS, pH 7.4, 1% FBS, 2 mM EDTA).
Starting from this point of the protocol all steps are performed on ice. 20 μL of CD14+ micro-beads are added per 1.0*10^7 cells, the tube is mixed and incubated for 15 min in the fridge at 4° C. Cell suspension volume is adjusted to total volume of 100 mL using Miltenyi buffer, mixed gently and subsequently centrifuged for 10 min at 300×g. Supernatant is discarded and cell pellet is resuspended in 12 mL of Miltenyi buffer.
Four LS columns are placed in the MACS Separator (magnet) from Miltenyi Biotec, and are prewet by rinsing with 3 mL of MACS buffer per column. Three mL of cell suspension is added onto the column (max 1*10^8 of labelled cells/column), and columns are subsequently washed 3 times with 3 mL of Miltenyi buffer.
The columns are removed from the magnets, and 5 mL of Miltenyi buffer are added to the column to flush out the CD14+ fraction by pushing the plunger into the column. The flushed fractions are collected in a fresh 50 mL Falcon and volume is adjusted to 30 mL using Miltenyi buffer, cells are centrifuged for 10 min at 300×g. The obtained cell pellet is resuspended in 10 mL RPMI w/o FBS, and cell density is determined using a hematologic analyser (Sysmex XS-500i). 100 000 cells are seeded in 80 μL per well of a 96-well plate in RPMI 1640 medium supplemented with 10% FBS, 1% P/S.
A compound dilution plate is made in 100% DMSO by 3-fold dilution of 10 mM stock solution. An intermediate dilution plate (10× final concentration) is made by diluting the compound dilution plate 50-fold in RPMI medium.
10 μL of the 10× final concentration compound is added to the cells and incubated for 1 h at 37° C. before addition of trigger. […]

A further assay addresses T2, SIK2 (Homo sapiens, UniProt Q9H0K1).
T2 construct: purchased ThermoFisher Scientific PV4792
Nature of the assay: ADP-Glo kinase assay, SIK2. The format is biochemical. Conditions: AMARA peptide 45 μM, 5 μM ATP, 120 min.
Description: as §1, §2, §3, §4, §5, §6, §7, §8, §9

Another assay deals with T3, SIK3 (Homo sapiens, UniProt Q9Y2K2).
T3 construct: purchased SignalChem S12-11G-100
The assay can be described thus: ADP-Glo kinase assay, SIK3. The format is biochemical. Conditions: AMARA peptide 45 μM, 5 μM ATP, 120 min.
Description: as §1, §2, §3, §4, §5, §6, §7, §8, §9
In general terms: In ADP-Glo the light output rises with the ADP produced.

T3 sequence (Q9Y2K2 whole entry): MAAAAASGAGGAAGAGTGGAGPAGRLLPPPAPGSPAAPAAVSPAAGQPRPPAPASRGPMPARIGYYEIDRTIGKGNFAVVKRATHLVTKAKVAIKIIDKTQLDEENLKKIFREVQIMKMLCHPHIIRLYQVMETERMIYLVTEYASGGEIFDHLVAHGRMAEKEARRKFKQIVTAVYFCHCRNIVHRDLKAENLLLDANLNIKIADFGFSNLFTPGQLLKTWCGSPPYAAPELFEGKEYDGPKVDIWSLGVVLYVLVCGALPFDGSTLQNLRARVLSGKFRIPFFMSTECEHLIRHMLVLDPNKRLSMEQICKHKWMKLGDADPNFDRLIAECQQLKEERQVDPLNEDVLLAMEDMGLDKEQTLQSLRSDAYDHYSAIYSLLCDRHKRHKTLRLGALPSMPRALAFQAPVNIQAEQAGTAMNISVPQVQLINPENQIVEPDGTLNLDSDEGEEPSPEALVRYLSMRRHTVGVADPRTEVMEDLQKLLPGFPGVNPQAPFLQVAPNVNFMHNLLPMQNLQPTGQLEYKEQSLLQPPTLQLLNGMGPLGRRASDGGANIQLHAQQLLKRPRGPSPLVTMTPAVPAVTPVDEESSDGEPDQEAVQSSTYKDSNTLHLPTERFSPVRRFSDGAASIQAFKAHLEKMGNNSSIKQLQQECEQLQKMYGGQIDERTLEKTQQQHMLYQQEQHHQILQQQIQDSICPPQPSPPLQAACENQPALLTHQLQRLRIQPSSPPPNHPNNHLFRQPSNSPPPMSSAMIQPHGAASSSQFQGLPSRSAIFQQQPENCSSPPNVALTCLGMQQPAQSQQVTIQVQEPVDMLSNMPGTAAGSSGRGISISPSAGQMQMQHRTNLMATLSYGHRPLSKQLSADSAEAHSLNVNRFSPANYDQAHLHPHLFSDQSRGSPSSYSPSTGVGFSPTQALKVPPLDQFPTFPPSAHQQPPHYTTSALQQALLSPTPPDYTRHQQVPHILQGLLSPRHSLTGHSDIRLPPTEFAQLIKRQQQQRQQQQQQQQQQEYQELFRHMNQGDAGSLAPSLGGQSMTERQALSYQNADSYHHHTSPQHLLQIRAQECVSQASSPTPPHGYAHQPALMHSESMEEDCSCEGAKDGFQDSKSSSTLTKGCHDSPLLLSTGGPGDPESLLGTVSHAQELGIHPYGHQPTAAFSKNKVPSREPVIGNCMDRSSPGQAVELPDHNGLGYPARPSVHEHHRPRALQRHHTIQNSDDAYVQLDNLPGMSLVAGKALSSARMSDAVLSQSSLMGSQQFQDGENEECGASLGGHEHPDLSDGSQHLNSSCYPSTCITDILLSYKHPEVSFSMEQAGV
T1 sequence (P57059 whole entry): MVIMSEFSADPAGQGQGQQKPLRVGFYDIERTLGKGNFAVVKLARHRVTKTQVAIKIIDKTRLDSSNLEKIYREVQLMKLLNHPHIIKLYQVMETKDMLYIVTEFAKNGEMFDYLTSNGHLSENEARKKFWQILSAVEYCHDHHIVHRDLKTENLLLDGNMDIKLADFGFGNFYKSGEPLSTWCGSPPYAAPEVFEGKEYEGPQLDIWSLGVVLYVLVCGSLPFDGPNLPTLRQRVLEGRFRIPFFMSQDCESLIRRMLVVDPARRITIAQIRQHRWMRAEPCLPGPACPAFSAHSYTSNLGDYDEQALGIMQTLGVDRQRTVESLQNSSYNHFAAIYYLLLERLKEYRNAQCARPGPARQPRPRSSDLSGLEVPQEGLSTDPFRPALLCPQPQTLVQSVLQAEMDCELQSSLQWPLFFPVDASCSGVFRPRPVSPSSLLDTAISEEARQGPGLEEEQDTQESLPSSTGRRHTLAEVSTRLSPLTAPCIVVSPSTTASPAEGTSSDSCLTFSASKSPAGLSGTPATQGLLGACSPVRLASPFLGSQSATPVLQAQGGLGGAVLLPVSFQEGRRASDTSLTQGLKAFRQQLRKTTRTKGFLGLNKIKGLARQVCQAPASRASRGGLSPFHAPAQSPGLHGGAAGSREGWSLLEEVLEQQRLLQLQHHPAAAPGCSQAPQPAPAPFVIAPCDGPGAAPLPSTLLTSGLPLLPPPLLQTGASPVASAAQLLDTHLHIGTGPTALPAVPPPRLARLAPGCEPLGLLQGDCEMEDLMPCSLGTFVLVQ
T2 sequence (Q9H0K1 whole entry): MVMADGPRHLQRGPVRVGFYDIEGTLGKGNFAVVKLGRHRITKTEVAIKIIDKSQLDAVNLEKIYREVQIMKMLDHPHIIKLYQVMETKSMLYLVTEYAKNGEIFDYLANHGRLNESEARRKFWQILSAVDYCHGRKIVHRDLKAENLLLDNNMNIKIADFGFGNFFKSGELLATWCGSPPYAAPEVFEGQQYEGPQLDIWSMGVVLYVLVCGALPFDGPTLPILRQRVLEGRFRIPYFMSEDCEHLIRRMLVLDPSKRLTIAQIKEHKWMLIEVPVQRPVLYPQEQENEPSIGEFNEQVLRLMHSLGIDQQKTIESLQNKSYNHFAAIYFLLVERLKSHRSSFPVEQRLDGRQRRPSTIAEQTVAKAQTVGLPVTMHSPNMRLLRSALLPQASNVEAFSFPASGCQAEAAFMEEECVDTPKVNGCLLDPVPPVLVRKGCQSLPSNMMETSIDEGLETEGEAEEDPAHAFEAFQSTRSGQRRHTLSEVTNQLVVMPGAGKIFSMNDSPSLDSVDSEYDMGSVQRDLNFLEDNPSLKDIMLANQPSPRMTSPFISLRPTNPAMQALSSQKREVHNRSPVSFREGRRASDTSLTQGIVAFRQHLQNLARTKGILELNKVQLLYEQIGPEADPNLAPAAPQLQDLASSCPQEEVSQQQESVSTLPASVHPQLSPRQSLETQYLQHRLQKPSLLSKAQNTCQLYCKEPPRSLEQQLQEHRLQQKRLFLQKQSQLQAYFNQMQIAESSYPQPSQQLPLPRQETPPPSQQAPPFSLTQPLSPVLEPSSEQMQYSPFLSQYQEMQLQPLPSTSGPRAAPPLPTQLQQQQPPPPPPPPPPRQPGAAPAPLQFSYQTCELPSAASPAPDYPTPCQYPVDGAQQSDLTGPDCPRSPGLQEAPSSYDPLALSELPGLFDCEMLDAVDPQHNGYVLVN

The IC50 is the concentration at which inhibition is half-maximal. By EC50 is commonly meant the midpoint of the concentration-response curve. For the molecule `COc1cc(-c2cnn3cc(OCCN4CCOCC4)ccc23)cc2c1C(=O)N(CC(F)(F)F)CC2` [Cpd 1, 8-methoxy-6-[6-(2-morpholinoethoxy)pyrazolo[1,5-a]pyridin-3-yl]-2-(2,2,2-trifluoroethyl)-3,4-dihydroisoquinolin-1-one], the IC50 fell in the range of 100 to 500 nM at SIK1, 0.01 to 10 nM against SIK2 and 0.01 to 10 nM on SIK3. Besides, in assay [1], the EC50 was in the range of 100 to 1000 nM.

Regarding `COc1cc(-c2cnn3cc(OC(C)(C)CN4CCOCC4)ccc23)cc(OC(F)F)c1C(=O)N[C@@H]1C[C@@H]1F` [Cpd 3, 2-(difluoromethoxy)-4-[6-(1,1-dimethyl-2-morpholino-ethoxy)pyrazolo[1,5-a]pyridin-3-yl]-N-[(1R,2S)-2-fluorocyclopropyl]-6-methoxy-benzamide], the results for the IC50 on SIK1, at SIK2 and against SIK3 were over 500 nM, 100 to 500 nM and 10 to 100 nM, respectively. This molecule also had an EC50 in assay [1] of 100 to 1000 nM.

`COc1cc(-c2cnn3cc(OC(C)(C)CO)ccc23)cc(OC(F)F)c1C(=O)N[C@@H]1C[C@@H]1F` [Cpd 2, 2-(difluoromethoxy)-N-[(1R,2S)-2-fluorocyclopropyl]-4-[6-(2-hydroxy-1,1-dimethyl-ethoxy)pyrazolo[1,5-a]pyridin-3-yl]-6-methoxy-benzamide]: the results for the IC50 on SIK1, against SIK2 and against SIK3 were over 500 nM, 100 to 500 nM and 0.01 to 10 nM, respectively. The molecule further gave an EC50 in assay [1] of 100 to 1000 nM.

The record behind these values is patent US12606554B2, “Compounds and pharmaceutical compositions thereof for the treatment of diseases” (ONCO3R Therapeutics BV, priority 2019, dated 2026).
